In US7910626B2, “Use of S1P receptor agonists in heart diseases” (Novartis AG, priority 2002, dated 2011):

Tests used:
[1] = Acute toxicity p.o. in monkeys; conditions: monkey, in vivo, po
Protocol: (§1) S1P receptor agonists are well tolerated at dosages required for use in accordance with the present invention. For example, FTY720 has an acute LD50 >10 mg/kg p.o. in rats and monkeys.

[2] = Acute toxicity p.o. in rats; conditions: rat, in vivo, po
Protocol: as §1

[3] = test system: chronic heart failure; test: Chronic heart failure in rabbits after large myocardial infarction; format: in vivo; conditions: heart failure induced by large myocardial infarction, i.v. at a dose of from 0.1 to 10 mg/kg
Protocol: The effect of a S1P receptor agonist, e.g. a compound of formula I on chronic heart failure is tested in rabbits where heart failure is induced as a consequence of a large myocardial infarction (R P. Hof et al. J. Cardiovasc. Pharmacol., 1991, 18,361-368). The changes of atrial natriuretic factor or baroflex sensitivity are a reliable indicator of the status of the heart failure in this animal model.

CCCCCCCCc1ccc(CCC(N)(CO)CO)cc1 [Compound A, 2-amino-2-[2-(4-octylphenyl)ethyl]propane-1,3-diol]
LD50 [1]: > 10 mg/kg | LD50 [2]: > 10 mg/kg | effect on the heart failure [3]: beneficial effect
